In the supplement of paper PMC11451515:

Tested on: SEM cells
Assay: cell viability relative to DMSO control; higher = less cytotoxic
Conditions: 48 h
Procedure, shortened: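 NOMO1, SEM and P12-Ichikawa leukemia cells spent at least four passages adapting to each medium before use. They were seeded at 500 cells/well (NOMO1, SEM) or 1000 cells/well (P12-Ichikawa) in 5 μl in 1536-well plates and pin-dosed with library compounds in DMSO at 11 threefold steps from 47 μM down to 0.79 nM. After 48 h at 37°C, CellTiter-Glo One luminescence was read. Viability is reported as a percentage of the DMSO wells on each plate, with cell-free wells as background.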

[1] = HPLM + 10% dialyzed FBS, 0.000781 µM
[2] = HPLM + 10% dialyzed FBS, 0.00234 µM
[3] = HPLM + 10% dialyzed FBS, 0.00702 µM
[4] = HPLM + 10% dialyzed FBS, 0.0211 µM
[5] = HPLM + 10% dialyzed FBS, 0.0632 µM
[6] = HPLM + 10% dialyzed FBS, 0.19 µM
[7] = HPLM + 10% dialyzed FBS, 0.569 µM
[8] = HPLM + 10% dialyzed FBS, 1.71 µM
[9] = HPLM + 10% dialyzed FBS, 5.12 µM
[10] = HPLM + 10% dialyzed FBS, 15.4 µM
[11] = HPLM + 10% dialyzed FBS, 46.1 µM
[12] = RPMI 5 mM glucose + 10% FBS, 0.000781 µM
[13] = RPMI 5 mM glucose + 10% FBS, 0.00234 µM
[14] = RPMI 5 mM glucose + 10% FBS, 0.00702 µM
[15] = RPMI 5 mM glucose + 10% FBS, 0.0211 µM
[16] = RPMI 5 mM glucose + 10% FBS, 0.0632 µM
[17] = RPMI 5 mM glucose + 10% FBS, 0.19 µM
[18] = RPMI 5 mM glucose + 10% FBS, 0.569 µM
[19] = RPMI 5 mM glucose + 10% FBS, 1.71 µM
[20] = RPMI 5 mM glucose + 10% FBS, 5.12 µM
[21] = RPMI 5 mM glucose + 10% FBS, 15.4 µM
[22] = RPMI 5 mM glucose + 10% FBS, 46.1 µM
[23] = RPMI 5 mM glucose + 10% dialyzed FBS, 0.000781 µM
[24] = RPMI 5 mM glucose + 10% dialyzed FBS, 0.00234 µM
[25] = RPMI 5 mM glucose + 10% dialyzed FBS, 0.00702 µM
[26] = RPMI 5 mM glucose + 10% dialyzed FBS, 0.0211 µM
[27] = RPMI 5 mM glucose + 10% dialyzed FBS, 0.0632 µM
[28] = RPMI 5 mM glucose + 10% dialyzed FBS, 0.19 µM
[29] = RPMI 5 mM glucose + 10% dialyzed FBS, 0.569 µM
[30] = RPMI 5 mM glucose + 10% dialyzed FBS, 1.71 µM
[31] = RPMI 5 mM glucose + 10% dialyzed FBS, 5.12 µM
[32] = RPMI 5 mM glucose + 10% dialyzed FBS, 15.4 µM
[33] = RPMI 5 mM glucose + 10% dialyzed FBS, 46.1 µM

SMILES	cell viability [1]	cell viability [2]	cell viability [3]	cell viability [4]	cell viability [5]	cell viability [6]	cell viability [7]	cell viability [8]	cell viability [9]	cell viability [10]	cell viability [11]	cell viability [12]	cell viability [13]	cell viability [14]	cell viability [15]	cell viability [16]	cell viability [17]	cell viability [18]	cell viability [19]	cell viability [20]	cell viability [21]	cell viability [22]	cell viability [23]	cell viability [24]	cell viability [25]	cell viability [26]	cell viability [27]	cell viability [28]	cell viability [29]	cell viability [30]	cell viability [31]	cell viability [32]	cell viability [33]
COC1=CC=C(C=C1)/C2=C(O)/C(=O)C3=C(O)C=C(O)C(=C3O2)CC=C(C)C	104%	95.9%	98.8%	114%	122%	111%	109%	118%	107%	97.8%	120%	86.7%	86.2%	90.8%	85.6%	95.2%	100%	93.4%	92%	94.1%	80.4%	95.2%	105%	103%	115%	115%	120%	113%	124%	118%	125%	121%	108%
COc1cc(C(=O)NC2CCN(C)CC2)ccc1Nc1ncc2c(n1)N(C1CCCC1)CCC(=O)N2C(C)C	81.4%	95.1%	119%	104%	105%	112%	6.04%	104%	94.8%	59.1%	13.5%	95.4%	106%	119%	130%	119%	120%	6.08%	98.1%	96.5%	54.2%	55.1%	83.4%	109%	117%	120%	112%	111%	5.18%	102%	96.5%	53.8%	60.8%
C=CC(=O)Nc1cc2c(Nc3ccc(F)c(Cl)c3)ncnc2cc1C#CC(C)(C)N1CCN(C)CC1	99.3%	107%	108%	114%	106%	104%	92.3%	87.1%	17.3%	4.78%	2.96%	112%	116%	112%	118%	105%	138%	103%	87.7%	22.2%	4.92%	4.19%	102%	104%	95.8%	97%	102%	106%	107%	87.7%	19.3%	4.98%	3.49%
CCC(C)CCCCC(=O)N[C@@H](CCN)C(=O)NC(C(=O)N[C@H](CCN)C(=O)N[C@@H]1CCNC(=O)C([C@@H](C)O)NC(=O)[C@@H](CCN)NC(=O)[C@@H](CCN)NC(=O)[C@@H](CC(C)C)NC(=O)[C@H](Cc2ccccc2)NC(=O)[C@H](CCN)NC1=O)[C@@H](C)O (some centres not stated)	81.6%	85.8%	94%	94.3%	100%	92.9%	76.5%	112%	109%	110%	101%	104%	113%	109%	109%	107%	110%	90.1%	108%	111%	118%	108%	87.1%	90.9%	93.2%	86.1%	107%	111%	49.8%	103%	105%	102%	118%
NC(=O)c1cnccn1	104%	116%	117%	106%	120%	120%	123%	125%	119%	122%	118%	108%	112%	133%	105%	116%	129%	127%	121%	119%	120%	119%											
CN1C(=O)c2sccc2N(C)c2nc(Nc3ccc([S+](N)(=O)[O-])cc3)ncc21	94.1%	93.2%	103%	102%	89.2%	99.6%	88.7%	67.8%	21.9%	9.56%	3.55%												112%	101%	106%	105%	95.6%	91.4%	93.7%	63.6%	14.8%	8.42%	4.39%
C[C@H](NC(=O)Cc1cc(F)cc(F)c1)C(=O)N[C@H](C(=O)OC(C)(C)C)c1ccccc1	100%	96.2%	91.7%	89.2%	102%	69.9%	92.1%	85.6%	79.7%	87.9%	70.2%	103%	92.3%	98.3%	105%	107%	87.3%	96.5%	88.6%	102%	88.7%	71.4%	90.6%	91.6%	80.6%	103%	96.9%	89.2%	91.3%	79.6%	74.7%	86.9%	70.3%
NC1=NC(=O)N2CC12 (configuration not stated)	84.2%	79.8%	87.7%	86.3%	87.2%	76.5%	94.9%	60.6%	34.9%	3.13%	2.28%	106%	82.3%	86.8%	104%	85.1%	82.6%	85.2%	43%	25.6%	2.22%	2.07%	77.3%	79.6%	82.5%	78.7%	79.3%	69.3%	84.1%	51.4%	23.9%	1.65%	1.54%
